According to US9346809B2 (LEO PHARMA A/S, priority 2009, dated 2016):

Experiments:
Format in all cases: biochemical
[1] = molecular target: T1, TYK2 (aa 871-1187, catalytic domain, GST-tag) (Homo sapiens, UniProt P29597); assay: JAK kinase assay (HTRF, phosphorylation of TK substrate-biotin), TYK2; conditions: HTRF assay, ATP at Km (13 μM); read-out: TYK2 kinase inhibitory activity (EC50 indicator)
T1 construct: JAK1 (aa 850-1154) and TYK2 (aa 871-1187) are expressed with an N-terminally fused GST-tag; GST (N); purchased Carna Biosciences, Inc; host or cells: baculovirus expression system
T1 sequence (P29597 871-1187): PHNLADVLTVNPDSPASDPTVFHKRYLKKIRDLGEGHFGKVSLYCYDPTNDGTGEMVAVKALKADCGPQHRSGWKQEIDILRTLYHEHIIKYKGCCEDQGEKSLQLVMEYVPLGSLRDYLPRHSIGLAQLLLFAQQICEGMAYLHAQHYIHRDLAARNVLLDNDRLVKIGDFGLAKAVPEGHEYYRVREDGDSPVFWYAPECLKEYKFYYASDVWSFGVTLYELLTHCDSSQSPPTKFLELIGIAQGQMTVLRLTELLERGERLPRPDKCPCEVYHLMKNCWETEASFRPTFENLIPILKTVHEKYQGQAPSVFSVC
In short: (§1)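 Compound was mixed with TK substrate-biotin (1 μM final), then kinase plus ATP at its Km was added and left 20-30 min at room temperature. Detection mix with EDTA, Streptavidin-XL665 and STK Ab Cryptate stopped the reaction; after overnight dark incubation, HTRF was read and EC50 derived.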

[2] = molecular target: T2, JAK2 (catalytic domain, His-tag) (Homo sapiens, UniProt O60674); assay: JAK kinase assay (HTRF, phosphorylation of TK substrate-biotin), JAK2; conditions: HTRF assay, ATP at Km (4 μM); read-out: JAK2 kinase inhibitory activity (EC50 indicator)
T2 construct: All four purified enzymes contain only the catalytic domain; His (N); purchased Carna Biosciences, Inc; host or cells: baculovirus expression system
T2 sequence (O60674 849-1124 limits assumed): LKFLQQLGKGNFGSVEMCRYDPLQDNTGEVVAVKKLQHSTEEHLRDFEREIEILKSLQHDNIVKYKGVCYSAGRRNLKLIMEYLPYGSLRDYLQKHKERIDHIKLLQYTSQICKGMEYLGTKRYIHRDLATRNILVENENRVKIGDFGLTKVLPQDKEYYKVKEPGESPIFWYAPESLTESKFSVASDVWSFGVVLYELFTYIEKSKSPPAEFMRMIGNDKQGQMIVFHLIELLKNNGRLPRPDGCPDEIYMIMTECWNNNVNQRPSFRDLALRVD
In short: as §1

[3] = molecular target: T3, JAK3 (catalytic domain, His-tag) (Homo sapiens, UniProt P52333); assay: JAK kinase assay (HTRF, phosphorylation of TK substrate-biotin), JAK3; conditions: HTRF assay, ATP at Km (2 μM); read-out: JAK3 kinase inhibitory activity (EC50 indicator)
T3 construct: All four purified enzymes contain only the catalytic domain; His (N); purchased Carna Biosciences, Inc; host or cells: baculovirus expression system
T3 sequence (P52333 822-1111 limits assumed): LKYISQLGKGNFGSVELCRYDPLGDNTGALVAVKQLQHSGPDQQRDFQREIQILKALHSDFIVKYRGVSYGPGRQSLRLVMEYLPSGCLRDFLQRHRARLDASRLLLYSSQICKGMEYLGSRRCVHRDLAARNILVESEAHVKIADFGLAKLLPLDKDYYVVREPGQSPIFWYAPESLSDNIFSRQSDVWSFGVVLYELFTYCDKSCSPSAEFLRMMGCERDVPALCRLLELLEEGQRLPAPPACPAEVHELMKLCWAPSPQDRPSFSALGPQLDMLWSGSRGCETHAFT
In short: as §1

[4] = molecular target: T4, JAK1 (aa 850-1154, catalytic domain, GST-tag) (Homo sapiens, UniProt P23458); assay: JAK kinase assay (HTRF, phosphorylation of TK substrate-biotin), JAK1; conditions: HTRF assay, ATP at Km (7 μM); read-out: JAK1 kinase inhibitory activity (EC50 indicator)
T4 construct: JAK1 (aa 850-1154) and TYK2 (aa 871-1187) are expressed with an N-terminally fused GST-tag; GST (N); purchased Carna Biosciences, Inc; host or cells: baculovirus expression system
T4 sequence (P23458 850-1154): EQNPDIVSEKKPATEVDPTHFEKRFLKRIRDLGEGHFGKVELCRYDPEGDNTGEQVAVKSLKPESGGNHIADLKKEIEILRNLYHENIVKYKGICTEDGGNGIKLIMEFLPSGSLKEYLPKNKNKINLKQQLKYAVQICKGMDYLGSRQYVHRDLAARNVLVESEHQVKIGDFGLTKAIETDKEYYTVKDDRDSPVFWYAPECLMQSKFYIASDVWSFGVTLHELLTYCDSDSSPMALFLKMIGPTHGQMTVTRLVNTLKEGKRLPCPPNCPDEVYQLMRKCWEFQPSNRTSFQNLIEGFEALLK
In short: as §1

| EC50 [1] [µM] | EC50 [2] [µM] | EC50 [3] [µM] | EC50 [4] [µM] | Compound |
| --- | --- | --- | --- | --- |
| 0.1 to 0.5 | < 0.1 | 0.1 to 0.5 | < 0.1 | Nc1nc(N2CCN(C(=O)c3cnc4ccccc4n3)C3(CC3)C2)c2cc[nH]c2n1 [Example 305, [7-(2-Amino-7H-pyrrolo[2,3-d]pyrimidin-4-yl)-4,7-diaza-spiro[2.5]oct-4-yl]-quinoxalin-2-yl-methanone] |
| > 0.5 | 0.1 to 0.5 | 0.1 to 0.5 | 0.1 to 0.5 | N#CCc1cccc(CC(=O)N2CCN(c3nc(N)nc4[nH]ccc34)CC23CC3)c1 [Example 306, (3-{2-[7-(2-Amino-7H-pyrrolo[2,3-d]pyrimidin-4-yl)-4,7-diaza-spiro[2.5]oct-4-yl]-2-oxo-ethyl}-phenyl)-acetonitrile] |
| > 0.5 | 0.1 to 0.5 | 0.1 to 0.5 | 0.1 to 0.5 | N#CCc1ccc(CC(=O)N2CCN(c3nc(N)nc4[nH]ccc34)CC23CC3)cc1 [Example 307, (4-{2-[7-(2-Amino-7H-pyrrolo[2,3-d]pyrimidin-4-yl)-4,7-diaza-spiro[2.5]oct-4-yl]-2-oxo-ethyl}-phenyl)-acetonitrile] |
| > 0.5 | < 0.1 | 0.1 to 0.5 | 0.1 to 0.5 | N#CC1(C(=O)N2CCN(c3nc(N)nc4[nH]ccc34)CC23CC3)CC1 [Example 308, 1-[7-(2-Amino-7H-pyrrolo[2,3-d]pyrimidin-4-yl)-4,7-diaza-spiro[2.5]octane-4-carbonyl]-cyclopropanecarbonitrile] |
| > 0.5 | < 0.1 | < 0.1 | < 0.1 | Nc1nc(N2CCN(C(=O)Cc3ccc(C(F)(F)F)cc3)C3(CC3)C2)c2cc[nH]c2n1 [Example 309, 1-[7-(2-Amino-7H-pyrrolo[2,3-d]pyrimidin-4-yl)-4,7-diaza-spiro[2.5]oct-4-yl]-2-(4-trifluoromethyl-phenyl)-ethanone] |
| > 0.5 | < 0.1 | < 0.1 | < 0.1 | N#CCCCC(=O)N1CCN(c2nc(N)nc3[nH]ccc23)CC12CC2 [Example 310, 5-[7-(2-Amino-7H-pyrrolo[2,3-d]pyrimidin-4-yl)-4,7-diaza-spiro[2.5]oct-4-yl]-5-oxo-pentanenitrile] |
| > 0.5 | 0.1 to 0.5 | 0.1 to 0.5 | 0.1 to 0.5 | N#Cc1cccc(CC(=O)N2CCN(c3nc(N)nc4[nH]ccc34)CC23CC3)c1 [Example 311, 3-{2-[7-(2-Amino-7H-pyrrolo[2,3-d]pyrimidin-4-yl)-4,7-diaza-spiro[2.5]oct-4-yl]-2-oxo-ethyl}-benzonitrile] |
| 0.1 to 0.5 | < 0.1 | < 0.1 | < 0.1 | N#Cc1ccc(CC(=O)N2CCN(c3nc(N)nc4[nH]ccc34)CC23CC3)cc1 [Example 312, 4-{2-[7-(2-Amino-7H-pyrrolo[2,3-d]pyrimidin-4-yl)-4,7-diaza-spiro[2.5]oct-4-yl]-2-oxo-ethyl}-benzonitrile] |
| 0.1 to 0.5 | < 0.1 | < 0.1 | < 0.1 | N#CCCC(=O)N1CCN(c2nc(N)nc3[nH]ccc23)CC12CC2 [Example 313, 4-[7-(2-Amino-7H-pyrrolo[2,3-d]pyrimidin-4-yl)-4,7-diaza-spiro[2.5]oct-4-yl]-4-oxo-butyronitrile] |
| > 0.5 | 0.1 to 0.5 | 0.1 to 0.5 | > 0.5 | N#CCc1ccc(CC(=O)N2CCN(c3ncnc4[nH]cc(Cl)c34)CC23CC3)cc1 [Example 319, (4-{2-[7-(5-Chloro-7H-pyrrolo[2,3-d]pyrimidin-4-yl)-4,7-diaza-spiro[2.5]oct-4-yl]-2-oxo-ethyl}-phenyl)-acetonitrile] |
| > 0.5 | > 0.5 | 0.1 to 0.5 | > 0.5 | Cc1c[nH]c2ncnc(N3CCN(C(=O)Cc4ccc(CC#N)cc4)C4(CC4)C3)c12 [Example 328, (4-{2-[7-(5-Methyl-7H-pyrrolo[2,3-d]pyrimidin-4-yl)-4,7-diaza-spiro[2.5]oct-4-yl]-2-oxo-ethyl}-phenyl)-acetonitrile] |

The remaining lines, values behind:

| Compound | EC50 [1] [µM] | EC50 [2] [µM] | EC50 [3] [µM] | EC50 [4] [µM] |
| --- | --- | --- | --- | --- |
| O=C(c1cnccn1)N1CCN(c2ncnc3[nH]cc(Cl)c23)CC12CC2 [Example 314, [7-(5-Chloro-7H-pyrrolo[2,3-d]pyrimidin-4-yl)-4,7-diaza-spiro[2.5]oct-4-yl]-pyrazin-2-yl-methanone] | > 0.5 | 0.1 to 0.5 | > 0.5 | > 0.5 |
| N#Cc1ccc(C(=O)N2CCN(c3ncnc4[nH]cc(Cl)c34)CC23CC3)cc1 [Example 315, 4-[7-(5-Chloro-7H-pyrrolo[2,3-d]pyrimidin-4-yl)-4,7-diaza-spiro[2.5]octane-4-carbonyl]-benzonitrile] | > 0.5 | > 0.5 | > 0.5 | > 0.5 |
| N#Cc1cccc(C(=O)N2CCN(c3ncnc4[nH]cc(Cl)c34)CC23CC3)c1 [Example 316, 3-[7-(5-Chloro-7H-pyrrolo[2,3-d]pyrimidin-4-yl)-4,7-diaza-spiro[2.5]octane-4-carbonyl]-benzonitrile] | > 0.5 | 0.1 to 0.5 | 0.1 to 0.5 | > 0.5 |
| O=C(c1cnc2ccccc2n1)N1CCN(c2ncnc3[nH]cc(Cl)c23)CC12CC2 [Example 317, [7-(5-Chloro-7H-pyrrolo[2,3-d]pyrimidin-4-yl)-4,7-diaza-spiro[2.5]oct-4-yl]-quinoxalin-2-yl-methanone] | > 0.5 | 0.1 to 0.5 | > 0.5 | > 0.5 |
| N#CCc1cccc(CC(=O)N2CCN(c3ncnc4[nH]cc(Cl)c34)CC23CC3)c1 [Example 318, (3-{2-[7-(5-Chloro-7H-pyrrolo[2,3-d]pyrimidin-4-yl)-4,7-diaza-spiro[2.5]oct-4-yl]-2-oxo-ethyl}-phenyl)-acetonitrile] | > 0.5 | > 0.5 | > 0.5 | > 0.5 |
| O=C(Cc1ccc(F)cc1)N1CCN(c2ncnc3[nH]cc(Cl)c23)CC12CC2 [Example 320, 1-[7-(5-Chloro-7H-pyrrolo[2,3-d]pyrimidin-4-yl)-4,7-diaza-spiro[2.5]oct-4-yl]-2-(4-fluoro-phenyl)-ethanone] | > 0.5 | < 0.1 | 0.1 to 0.5 | 0.1 to 0.5 |
| O=C(Cc1ccc(C(F)(F)F)cc1)N1CCN(c2ncnc3[nH]cc(Cl)c23)CC12CC2 [Example 321, 1-[7-(5-Chloro-7H-pyrrolo[2,3-d]pyrimidin-4-yl)-4,7-diaza-spiro[2.5]oct-4-yl]-2-(4-trifluoromethyl-phenyl)-ethanone] | > 0.5 | 0.1 to 0.5 | < 0.1 | 0.1 to 0.5 |
| N#CCCCC(=O)N1CCN(c2ncnc3[nH]cc(Cl)c23)CC12CC2 [Example 322, 5-[7-(5-Chloro-7H-pyrrolo[2,3-d]pyrimidin-4-yl)-4,7-diaza-spiro[2.5]oct-4-yl]-5-oxo-pentanenitrile] | > 0.5 | > 0.5 | 0.1 to 0.5 | > 0.5 |
| N#Cc1cccc(CC(=O)N2CCN(c3ncnc4[nH]cc(Cl)c34)CC23CC3)c1 [Example 323, 3-{2-[7-(5-Chloro-7H-pyrrolo[2,3-d]pyrimidin-4-yl)-4,7-diaza-spiro[2.5]oct-4-yl]-2-oxo-ethyl}-benzonitrile] | > 0.5 | < 0.1 | 0.1 to 0.5 | > 0.5 |
| N#Cc1ccc(CC(=O)N2CCN(c3ncnc4[nH]cc(Cl)c34)CC23CC3)cc1 [Example 324, 4-{2-[7-(5-Chloro-7H-pyrrolo[2,3-d]pyrimidin-4-yl)-4,7-diaza-spiro[2.5]oct-4-yl]-2-oxo-ethyl}-benzonitrile] | > 0.5 | < 0.1 | < 0.1 | < 0.1 |
| N#CCCC(=O)N1CCN(c2ncnc3[nH]cc(Cl)c23)CC12CC2 [Example 325, 4-[7-(5-Chloro-7H-pyrrolo[2,3-d]pyrimidin-4-yl)-4,7-diaza-spiro[2.5]oct-4-yl]-4-oxo-butyronitrile] | > 0.5 | 0.1 to 0.5 | 0.1 to 0.5 | > 0.5 |
| Cc1c[nH]c2ncnc(N3CCN(C(=O)c4cnccn4)C4(CC4)C3)c12 [Example 326, [7-(5-Methyl-7H-pyrrolo[2,3-d]pyrimidin-4-yl)-4,7-diaza-spiro[2.5]oct-4-yl]-pyrazin-2-yl-methanone] | > 0.5 | > 0.5 | > 0.5 | > 0.5 |
| Cc1c[nH]c2ncnc(N3CCN(C(=O)Cc4cccc(CC#N)c4)C4(CC4)C3)c12 [Example 327, (3-{2-[7-(5-Methyl-7H-pyrrolo[2,3-d]pyrimidin-4-yl)-4,7-diaza-spiro[2.5]oct-4-yl]-2-oxo-ethyl}-phenyl)-acetonitrile] | > 0.5 | > 0.5 | > 0.5 | > 0.5 |
